Assay results: patent US20250304563A1, “ACTIVATORS OF EFFECTOR T CELLS” (Orum Therapeutics, Inc., priority 2022, published 2025)

Tests used:
Human primary T cells [1] = assay: T cell activation: CD69 surface expression by flow cytometry; assay type: cell-based; settings: fold over anti-CD3 stimulated background normalized to Compound 141A; for CD69 10 nM: 10 nM compound; for CD69 100 nM: 100 nM compound; for CD69 1 nM: 1 nM compound
Summary of the method: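 Negatively selected human primary T cells (1×10^5/well, XVivo-15) were captured on plates coated with 10 μg/mL anti-CD3 (OKT3). They were exposed to serially diluted compounds in duplicate for 48 h at 37° C. CD69 was read by flow cytometry as fold over anti-CD3-only background, normalized to Compound 141A and binned into ranges.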

[2] = biological target: Cbl-b (36-427 aa truncated form, N-terminus Avi-tag) (Homo sapiens (Human), UniProt Q13191); assay: Cbl-b binding: TR-FRET displacement of BODIPY-FL probe
Summary of the method: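 Avi-tagged Cbl-b 36-427 preincubated 1 h at RT with streptavidin-terbium in HEPES pH 7.5/NaCl/Triton/BSA/TCEP buffer, then 1 uM BODIPY-FL inhibitor probe plus compound added for 1 h. Probe displacement read by TR-FRET; IC50 fitted.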

Human primary T cells [3] = assay: T cell activation: secreted IFN-y; assay type: cell-based; settings: 48 hours, fold over background normalized to Compound 141A; for IFN-y 1 nM: 1 nM compound; for IFN-y 10 nM: 10 nM compound; for IFN-y 100 nM: 100 nM compound
Summary of the method: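 Negatively selected primary human T cells (1×10^5/well, serum-free XVivo-15) on plates coated with 10 μg/mL anti-CD3 were exposed to serial compound dilutions for 48 h at 37 °C. Secreted IFN-γ was measured by cytometric bead array and expressed as fold over anti-CD3/CD28 background, normalized to a reference compound and binned into ranges A–D.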

Human primary T cells [4] = assay: T cell activation: secreted IL-2; assay type: cell-based; settings: 48 hours, fold over background normalized to Compound 141A; for IL-2 1 nM: 1 nM compound; for IL-2 10 nM: 10 nM compound; for IL-2 100 nM: 100 nM compound
Summary of the method: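 Negatively selected human primary T cells on plate-bound anti-CD3 (OKT3) in serum-free medium, treated 48 h at 37° C. with serial compound dilutions in duplicate. Secreted IL-2 by bead-based cytometric assay, expressed as fold over anti-CD3/CD28 background normalized to a reference compound, then binned into ranges.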

Sequence of Cbl-b (36-427 aa truncated form, N-terminus Avi-tag) (Q13191 36-427): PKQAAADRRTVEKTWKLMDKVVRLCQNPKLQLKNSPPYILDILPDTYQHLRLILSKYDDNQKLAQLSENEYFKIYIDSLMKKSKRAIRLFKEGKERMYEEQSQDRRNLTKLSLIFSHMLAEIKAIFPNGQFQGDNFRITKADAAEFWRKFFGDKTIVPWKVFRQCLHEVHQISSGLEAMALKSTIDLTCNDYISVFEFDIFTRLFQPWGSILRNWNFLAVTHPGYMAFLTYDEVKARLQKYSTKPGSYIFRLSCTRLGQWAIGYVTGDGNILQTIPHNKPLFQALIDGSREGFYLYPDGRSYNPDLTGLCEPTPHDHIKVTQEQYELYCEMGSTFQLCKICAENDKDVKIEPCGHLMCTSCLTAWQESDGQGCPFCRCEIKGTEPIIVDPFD

Compound	IC50 [2]	CD69 10 nM (Human primary T cells [1])	CD69 100 nM (Human primary T cells [1])	IFN-y 1 nM (Human primary T cells [3])	IFN-y 10 nM (Human primary T cells [3])	IFN-y 100 nM (Human primary T cells [3])	IL-2 1 nM (Human primary T cells [4])	IL-2 10 nM (Human primary T cells [4])	IL-2 100 nM (Human primary T cells [4])	CD69 1 nM (Human primary T cells [1])
C#CCCS(=O)(=O)N1CCN(c2cc(C3(Cc4nncn4C)COC3)cc(N3Cc4c(cc(CN5CCC[C@H](C)C5)cc4C(F)(F)F)C3=O)n2)CC1 [Compound 134, (S)-2-(6-(4-(but-3-yn-1-ylsulfonyl)piperazin-1-yl)-4-(3-((4-methyl-4H-1,2,4-triazol-3-yl)methyl)oxetan-3-yl)pyridin-2-yl)-6-((3-methylpiperidin-1-yl)methyl)-4-(trifluoromethyl)isoindolin-1-one]	5.01 to 20 nM	B (values between 0.61 and 0.80: range “B;”)	A (values between 0.81 and 1.10: range “A”)	B (values between 0.31 and 1.00: range “B;”)	B (values between 0.31 and 1.00: range “B;”)	B (values between 0.31 and 1.00: range “B;”)	C (values between 0.10 and 0.30: range “C”)	B (values between 0.31 and 0.79: range “B”)	B (values between 0.31 and 0.79: range “B”)	
CCNc1cc(C2(c3nncn3C)CC(C)C2)cc(N2Cc3c(cc(CN4CCC[C@H](C)C4)cc3C(F)(F)F)C2=O)n1 (some centres unmarked) [Compound 171, 2-[6-(ethylamino)-4-[(1r,3s)-3-methyl-1-(4-methyl-1,2,4-triazol-3-yl)cyclobutyl]pyridin-2-yl]-6-{[(3 S)-3-methylpiperidin-1-yl]methyl}-4-(trifluoromethyl)-3H-isoindol-1-one]	100 to 1000 nM	C (values between 0.30 and 0.60: range “C”)	X (fold over background values between 1.11 and 1.6: range “X”)	B (values between 0.31 and 1.00: range “B;”)	B (values between 0.31 and 1.00: range “B;”)	A (fold over background between 1.10 and 2.00: range “A”)	C (values between 0.10 and 0.30: range “C”)	C (values between 0.10 and 0.30: range “C”)	B (values between 0.31 and 0.79: range “B”)	C (values between 0.30 and 0.60: range “C”)
C[C@H]1CCCN(Cc2cc3c(c(C(F)(F)F)c2)CN(c2cc(C4(Cc5nncn5C)COC4)cc(NC4CC(C#N)C4)n2)C3=O)C1.O=C(O)C(F)(F)F (stereo partly drawn) [Compound 190, (S)-3-((4-(3-((4-methyl-4H-1,2,4-triazol-3-yl)methyl)oxetan-3-yl)-6-(6-((3-methylpiperidin-1-yl)methyl)-1-oxo-4-(trifluoromethyl)isoindolin-2-yl)pyridin-2-yl)amino)cyclobutane-1-carbonitrile; trifluoroacetic acid]	5.01 to 20 nM	C (values between 0.30 and 0.60: range “C”)	B (values between 0.61 and 0.80: range “B;”)	C (values between 0.10 and 0.30: range “C”)	B (values between 0.31 and 1.00: range “B;”)	B (values between 0.31 and 1.00: range “B;”)	C (values between 0.10 and 0.30: range “C”)	C (values between 0.10 and 0.30: range “C”)	C (values between 0.10 and 0.30: range “C”)	C (values between 0.30 and 0.60: range “C”)
Cn1cnnc1CC1(c2cccc(NC(=O)c3cc(CN4CC[C@H](OCCCCCCNC(=O)CCN5C(=O)C=CC5=O)C4)cc(C4CC4)n3)c2)COC1 [Compound 200]	5.01 to 20 nM	C (values between 0.30 and 0.60: range “C”)	C (values between 0.30 and 0.60: range “C”)	C (values between 0.10 and 0.30: range “C”)	C (values between 0.10 and 0.30: range “C”)	C (values between 0.10 and 0.30: range “C”)	C (values between 0.10 and 0.30: range “C”)	C (values between 0.10 and 0.30: range “C”)	C (values between 0.10 and 0.30: range “C”)	

Now from value to compound, other results behind:

IC50 [2]	Compound	CD69 10 nM (Human primary T cells [1])	CD69 100 nM (Human primary T cells [1])	IFN-y 1 nM (Human primary T cells [3])	IFN-y 10 nM (Human primary T cells [3])	IFN-y 100 nM (Human primary T cells [3])	IL-2 1 nM (Human primary T cells [4])	IL-2 10 nM (Human primary T cells [4])	IL-2 100 nM (Human primary T cells [4])	CD69 1 nM (Human primary T cells [1])
5.01 to 20 nM	C=CC(=O)NCCNc1cc(C2(Cc3nncn3C)COC2)cc(N2Cc3c(cc(CN4CCC[C@H](C)C4)cc3C(F)(F)F)C2=O)n1 [Compound 125, (S)-N-(2-((4-(3-((4-methyl-4H-1,2,4-triazol-3-yl)methyl)oxetan-3-yl)-6-(6-((3-methylpiperidin-1-yl)methyl)-1-oxo-4-(trifluoromethyl)isoindolin-2-yl)pyridin-2-yl)amino)ethyl)acrylamide]	C (values between 0.30 and 0.60: range “C”)	A (values between 0.81 and 1.10: range “A”)	C (values between 0.10 and 0.30: range “C”)	C (values between 0.10 and 0.30: range “C”)	B (values between 0.31 and 1.00: range “B;”)	C (values between 0.10 and 0.30: range “C”)	C (values between 0.10 and 0.30: range “C”)	B (values between 0.31 and 0.79: range “B”)	
1 to 5 nM	CC1CC(c2cccc(N3Cc4c(cc(C(CO)N5CCC[C@H](C)C5)cc4C(F)(F)F)C3=O)c2)(c2nncn2C)C1 (stereo partly drawn) [Compound 152, 6-{2-hydroxy-1-[(3S)-3-methylpiperidin-1-yl]ethyl}-2-{3-[(1r,3s)-3-methyl-1-(4-methyl-1,2,4-triazol-3-yl)cyclobutyl]phenyl}-4-(trifluoromethyl)-3H-isoindol-1-one]	C (values between 0.30 and 0.60: range “C”)	A (values between 0.81 and 1.10: range “A”)	C (values between 0.10 and 0.30: range “C”)	B (values between 0.31 and 1.00: range “B;”)	B (values between 0.31 and 1.00: range “B;”)	C (values between 0.10 and 0.30: range “C”)	C (values between 0.10 and 0.30: range “C”)	C (values between 0.10 and 0.30: range “C”)	C (values between 0.30 and 0.60: range “C”)
5.01 to 20 nM	CSCCNc1cc(C2(Cc3nncn3C)COC2)cc(N2Cc3c(cc(CN4CCC[C@H](C)C4)cc3C(F)(F)F)C2=O)n1 [Compound 103, 2-(4-{3-[(4-methyl-1,2,4-triazol-3-yl)methyl]oxetan-3-yl}-6-{[2-(methylsulfanyl)ethyl]amino}pyridin-2-yl)-6-{[(3S)-3-methylpiperidin-1-yl]methyl}-4-(trifluoromethyl)-3H-isoindol-1-one]	C (values between 0.30 and 0.60: range “C”)	B (values between 0.61 and 0.80: range “B;”)	C (values between 0.10 and 0.30: range “C”)	C (values between 0.10 and 0.30: range “C”)	B (values between 0.31 and 1.00: range “B;”)	C (values between 0.10 and 0.30: range “C”)	C (values between 0.10 and 0.30: range “C”)	B (values between 0.31 and 0.79: range “B”)	
5.01 to 20 nM	CSc1cc(CN2CCC[C@H](C)C2)cc2c1CN(c1cc([C@]3(c4nncn4C)C[C@H](C)C3)cc(N)n1)C2=O [Compound 174, 2-{6-amino-4-[(1r,3s)-3-methyl-1-(4-methyl-1,2,4-triazol-3-yl)cyclobutyl]pyridin-2-yl}-6-{[(3S)-3-methylpiperidin-1-yl]methyl}-4-(methylsulfanyl)-3H-isoindol-1-one]	C (values between 0.30 and 0.60: range “C”)	B (values between 0.61 and 0.80: range “B;”)	B (values between 0.31 and 1.00: range “B;”)	B (values between 0.31 and 1.00: range “B;”)	B (values between 0.31 and 1.00: range “B;”)	D (values between 0.01 and 0.09: range “D.”)	D (values between 0.01 and 0.09: range “D.”)	B (values between 0.31 and 0.79: range “B”)	C (values between 0.30 and 0.60: range “C”)
1 to 5 nM	CSc1cc(CN2CCC[C@H](C)C2)cc2c1CN(c1cccc([C@]3(c4nncn4C)C[C@H](C)C3)c1)C2=O [Compound 150, 6-{[(3S)-3-methylpiperidin-1-yl]methyl}-4-(methylsulfanyl)-2-{3-[(1r,3s)-3-methyl-1-(4-methyl-1,2,4-triazol-3-yl)cyclobutyl]phenyl}-3H-isoindol-1-one]	C (values between 0.30 and 0.60: range “C”)	A (values between 0.81 and 1.10: range “A”)	B (values between 0.31 and 1.00: range “B;”)	B (values between 0.31 and 1.00: range “B;”)	A (fold over background between 1.10 and 2.00: range “A”)	D (values between 0.01 and 0.09: range “D.”)	C (values between 0.10 and 0.30: range “C”)	B (values between 0.31 and 0.79: range “B”)	C (values between 0.30 and 0.60: range “C”)
